Read-outs that look alike come from different tables or passages of the source.
Columns and labels:
Format in all cases: cell-based
SW620 cells = assay: SW620 cell proliferation assay (colorectal cancer, G12V), 5 days; conditions: Homo sapiens, SW-620, 120 h
Protocol: SW620 Cell Proliferation Assay (Colorectal Cancer, G12V)
(§1) SW620 cells (ATCC CCL-227) are dispensed into white bottom opaque 96 well plates (Perkin Elmer cat no. 5680) at a density of 2000 cells per well in 100 μL DMEM (BioWhittaker, Cat #BE12-605F) supplemented with 10% FCS. […] Compounds (10 mM stock in DMSO) are added at logarithmic dose series using the HP Digital Dispenser D300 (Tecan), normalizing for added DMSO. For the TO time point measurement, untreated cells are analysed at the time of compound addition. Plates are incubated for 5 days, and cell viability is measured using CellTiter-Glo luminescent cell viability reagent (Promega, Cat. No G7570). Viability (stated as percent of control) is defined as relative luminescence units RLU of each well divided by the RLU of cells in DMSO controls. IC50 values were computed from relative viability values using a four parametric logistic model.

KRAS(G12D) = biological target: T1, KRAS(G12D) (Homo sapiens, UniProt P01116, G12D); assay: HiBit degradation assay in GP5d-HiBit-KRAS(G12D) cells (18 h; DC50, Dmax)
T1 construct: introduced immediately downstream of the initiating Methionine codon of the endogenous KRAS locus; host or cells: GP5d-HiBit-KRAS(G12D), a CRISPR knock-in at the endogenous locus
T1 sequence (P01116 1-188 isoform P01116-2 G12D): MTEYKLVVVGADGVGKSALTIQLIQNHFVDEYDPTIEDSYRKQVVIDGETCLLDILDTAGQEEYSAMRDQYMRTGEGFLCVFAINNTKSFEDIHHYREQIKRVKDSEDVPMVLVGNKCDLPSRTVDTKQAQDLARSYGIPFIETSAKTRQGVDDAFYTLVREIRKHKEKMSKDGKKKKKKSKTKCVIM
Protocol: A HiBit protein detection tag (amino acid sequence […], Seq ID No 1) was introduced immediately downstream of the initiating Methionine codon of the endogenous KRAS locus (Ensembl gene ID ENSG00000133703.7) of GP5d cells (ECACC Cat. No. 95090715) by CRISPR-based genome engineering using a KRAS(G12D) mutant donor construct encoding the HiBit tag. […] Correct modification of the KRAS locus was assessed by PCR-based genotyping and Sanger sequencing of the isolated PCR products. The resulting cell line is referred to as GP5d-HiBit-KRAS(G12D).
To assess PROTAC-mediated degradation of KRAS(G12D), GP5d-HiBit-KRAS(G12D) cells were seeded at 25000 cells per well in 100 μL Dulbecco's Modified Eagle medium (Sigma cat. no. D6429) supplemented with 10% fetal calf serum into white bottom opaque 96 well plates (Perkin Elmer cat no. 5680). Plates were incubated at 37° C., 5% CO2 in a humidified incubator over night to allow the cells to adhere. […] Plates were further incubated at 37° C. for 18 hours. Following incubation, 100 μL per well Promega Nano-Glo HiBit lytic detection reagent mix (Promega Nano-Glo HiBit Lytic Detection System #N3050), prepared according to the manufacturer's instructions in the kit, were added. To allow for adequate cell lysis, plates were incubated on an orbital shaker for 15 min and further incubated 30 min at room temperature. Upon completion of cell lysis, luminescence was measured using an Envision plate reader using the Ultrasensitive Luminescence Protocol for 96 well plates. Luminescence levels were normalized by the values obtained with DMSO-treated samples and plotted as percent of DMSO control. DC50 values were computed using a four parametric logistic model. Dmax values represent the maximal extent of degradation observed and is stated as percent of control (% Ctrl.) treatments. DC50 and Dmax are reported in Table 64 for representative compounds of the invention.

GP5d cells = assay: GP5d cell proliferation assay (colorectal cancer, G12D), 5 days; conditions: Homo sapiens, 120 h
Protocol: GP5d Cell Proliferation Assay (Colorectal Cancer, G12D)
as §1, with “GP5d” for “SW620”, “(ECACC 95090715)” for “(ATCC CCL-227)”, “plates” for “plates (Perkin Elmer cat no. 5680)”, “5000” for “2000”

NCI-H358 cells = assay: NCI-H358 CTG proliferation assay (120 h) (NSCLC, G12C); conditions: Homo sapiens
Protocol: NCI-H358 CTG Proliferation Assay (120 h) (NSCLC, G12C)
NCI-H358 cells (ATCC No. CRL-5807) are dispensed into white bottom opaque 96 well plates (Perkin Elmer cat no. 5680) at a density of 2000 cells per well in 100 μL RPMI-1640 ATCC-Formulation (Gibco #A10491)+10% FCS (fetal calf serum) (assay 1) or into black 384-well plates, flat and clear bottom (Greiner, PNr. 781091) at a density of 200 cells per well in 60 μl RPMI-1640 ATCC-Formulation (Gibco #A10491)+10% FCS (fetal calf serum) (assay 2). […] Compounds (10 mM stock in DMSO) are added at logarithmic dose series using the HP Digital Dispenser D300 (Tecan) (assay 1) or the ECHO acoustic liquid handler system (Beckman Coulter) (assay 2), normalizing for added DMSO and including DMSO controls. For the TO time point measurement, untreated cells are analyzed at the time of compound addition. Plates are incubated for 120 h, and cell viability is measured using CellTiter-Glo luminescent cell viability reagent (Promega product code G7570). Viability (stated as percent of control) is defined as relative luminescence units RLU of each well divided by the RLU of cells in DMSO controls. IC50 values are determined from viability measurements by non-linear regression using a four parameter model.

[1] = assay 1, read-out: H358 (assay 1) IC50
[2] = assay 2, read-out: H358 (assay 2) IC50

SMILES | IC50 (SW620 cells) [nM] | DC50 (KRAS(G12D)) [nM] | Dmax 18 h (KRAS(G12D)) [% Ctrl] | IC50 (GP5d cells) [nM] | IC50 (NCI-H358 cells; [1]) [nM] | IC50 (NCI-H358 cells; [2]) [nM]
Cc1ncsc1-c1ccc(CNC(=O)[C@@H]2C[C@@H](O)CN2C(=O)[C@H](c2cc(OCCCCN3CCCN(c4nccc(-c5noc([C@@]6(C)CCCc7sc(N)c(C#N)c76)n5)n4)[C@@H](C)C3)no2)C(C)C)cc1 (single isomer, unassigned) [I-26] | 265 | 101 | 77 | 133 | 485 | 435
Cc1ncsc1-c1ccc([C@@H](NC(=O)[C@@H]2C[C@@H](O)CN2C(=O)[C@@H](C(C)C)n2cc(OCCCCN3CCCN(c4nccc(-c5noc([C@@]6(C)CCCc7sc(N)c(C#N)c76)n5)n4)[C@@H](C)C3)nn2)[C@H](C)O)cc1 (single isomer, unassigned) [I-40] |  | 970 | 61 |  |  | 2720
Cc1ncsc1-c1ccc([C@@H](NC(=O)[C@@H]2C[C@@H](O)CN2C(=O)[C@@H](C(C)C)n2cc(OCCCN3CCCN(c4nccc(-c5noc([C@@]6(C)CCCc7sc(N)c(C#N)c76)n5)n4)[C@@H](C)C3)nn2)[C@H](O)C(C)C)cc1 (single isomer, unassigned) [I-42] |  | 462 | 74 |  |  | 1920
Cc1ncsc1-c1ccc([C@@H](NC(=O)[C@@H]2C[C@@H](O)CN2C(=O)[C@@H](C(C)C)n2cc(OCCCCN3CCCN(c4nccc(-c5noc([C@@]6(C)CCCc7sc(N)c(C#N)c76)n5)n4)[C@@H](C)C3)nn2)[C@H](O)C(C)C)cc1 (single isomer, unassigned) [I-44] |  | 49.7 | 88 |  |  | 604
Cc1ncsc1-c1ccc(CNC(=O)[C@@H]2C[C@@H](O)CN2C(=O)C(c2cc(OCCN3CCCN(c4nccc(-c5noc([C@@]6(C)CCCc7sc(N)c(C#N)c76)n5)n4)[C@@H](C)C3)no2)C(C)C)cc1 (some centres unmarked) [I-2] | 598 | 263 | 84 | ≥ 9000 | 2930 | 
Cc1ncsc1-c1ccc(CNC(=O)[C@@H]2C[C@@H](O)CN2C(=O)C(c2cc(OCCOCCN3CCCN(c4nccc(-c5noc([C@@]6(C)CCCc7sc(N)c(C#N)c76)n5)n4)[C@@H](C)C3)no2)C(C)C)cc1 (some centres unmarked) [I-14] |  | 76 | 80 |  |  | 843
Cc1ncsc1-c1ccc(CNC(=O)[C@@H]2C[C@@H](O)CN2C(=O)C(c2cc(OCCCN3CCCN(c4ccnc(-c5noc([C@@]6(C)CCCc7sc(N)c(C#N)c76)n5)n4)[C@@H](C)C3)no2)C(C)C)cc1 (some centres unmarked) [I-21] |  | 41.1 | 90 |  |  | 81.3
Cc1ncsc1-c1ccc(CNC(=O)[C@@H]2C[C@@H](O)CN2C(=O)C(c2cc(OCCCCN3CCCN(c4ccnc(-c5noc([C@@]6(C)CCCc7sc(N)c(C#N)c76)n5)n4)[C@@H](C)C3)no2)C(C)C)cc1 (some centres unmarked) [I-22] |  | 48.8 | 92 |  |  | 97.5

These reach a lower DC50 (KRAS(G12D)). Values come first.

IC50 (SW620 cells) [nM] | DC50 (KRAS(G12D)) [nM] | Dmax 18 h (KRAS(G12D)) [% Ctrl] | IC50 (GP5d cells) [nM] | IC50 (NCI-H358 cells; [1]) [nM] | IC50 (NCI-H358 cells; [2]) [nM] | SMILES
115 | 15.4 | 91 | 39.3 | 265 | 203 | Cc1cc(CNC(=O)[C@@H]2C[C@@H](O)CN2C(=O)C(c2cc(OCCCCN3CCCN(c4nccc(-c5noc([C@@]6(C)CCCc7sc(N)c(C#N)c76)n5)n4)[C@@H](C)C3)no2)C(C)C)ccc1-c1scnc1C (some centres unmarked) [I-10]
50.4 | 11.4 | 86 | 90.2 | 725 | 136 | Cc1ncsc1-c1ccc(CNC(=O)[C@@H]2C[C@@H](O)CN2C(=O)C(c2cc(OCCCCCCN3CCCN(c4nccc(-c5noc([C@@]6(C)CCCc7sc(N)c(C#N)c76)n5)n4)[C@@H](C)C3)no2)C(C)C)cc1 (some centres unmarked) [I-8]
55.9 | 11 | 89 | 23.4 | 480 | 180 | CC(C)C(C(=O)N1C[C@H](O)C[C@H]1C(=O)NCc1ccc(Br)cc1)c1cc(OCCCCN2CCCN(c3nccc(-c4noc([C@@]5(C)CCCc6sc(N)c(C#N)c65)n4)n3)[C@@H](C)C2)no1 (some centres unmarked) [I-7]
 | 9.8 | 90 |  |  | 122 | Cc1ncsc1-c1ccc(CNC(=O)[C@@H]2C[C@@H](O)CN2C(=O)C(c2cc(OC/C=C/CN3CCCN(c4nccc(-c5noc([C@@]6(C)CCCc7sc(N)c(C#N)c76)n5)n4)[C@@H](C)C3)no2)C(C)C)cc1 (some centres unmarked) [I-15]
 | 7.7 | 87 |  |  | 57 | Cc1ncsc1-c1ccc([C@H](CCOP(=O)(O)O)NC(=O)[C@@H]2C[C@@H](O)CN2C(=O)[C@H](C(C)C)n2cc(OCCCCN3CCCN(c4nccc(-c5noc([C@@]6(C)CCCc7sc(N)c(C#N)c76)n5)n4)[C@@H](C)C3)nn2)cc1 [I-39]
47.9 | 6.5 | 92 | 13.8 | 117 | 58.4 | Cc1ncsc1-c1ccc(CNC(=O)[C@@H]2C[C@@H](O)CN2C(=O)C(c2cc(OCCCCN3CCCN(c4nccc(-c5noc([C@@]6(C)CCCc7sc(N)c(C#N)c76)n5)n4)[C@@H](C)C3)no2)C(C)C)cc1F (some centres unmarked) [I-5]
27.3 | 6.4 | 94 | 22.2 | 151 | 96.5 | Cc1ncsc1-c1ccc(CNC(=O)[C@@H]2C[C@@H](O)CN2C(=O)C(c2cc(OCCCN3CCCN(c4nccc(-c5noc([C@@]6(C)CCCc7sc(N)c(C#N)c76)n5)n4)[C@@H](C)C3)no2)C(C)C)cc1 (some centres unmarked) [I-1]
 | 3.3 | 93 |  |  | 89.5 | CC(C)C(C(=O)N1C[C@H](O)C[C@H]1C(=O)NCc1ccc(-n2cncn2)cc1)c1cc(OCCCCN2CCCN(c3nccc(-c4noc([C@@]5(C)CCCc6sc(N)c(C#N)c65)n4)n3)[C@@H](C)C2)no1 (some centres unmarked) [I-17]
13.1 | 2.7 | 91 | 6.14 | 66 | 60.7 | Cc1ncsc1-c1ccc(CNC(=O)[C@@H]2C[C@@H](O)CN2C(=O)C(c2cc(OCCCCN3CCCN(c4nccc(-c5noc([C@@]6(C)CCCc7sc(N)c(C#N)c76)n5)n4)[C@@H](C)C3)no2)C(C)C)cc1 (some centres unmarked) [I-3]
